Test system: Hirsutella rhossiliensis
Test: Effect of carbon source on growth, sporulation and spore germination
Conditions: for Growth mm-in-diam, on agar: carbon source 4 g/liter carbon; for Growth mm-in-diam, on agar / Sporulation 10^3/cm^2, on agar / growth in liquid culture (visual rating): 5 weeks; for Sporulation 10^3/cm^2, on agar / Spore germination %, on agar / growth in liquid culture (visual rating): carbon source; for Spore germination %, on agar: after incubation for 24 hr

Structure (SMILES): O=C(O)CC(O)(CC(=O)O)C(=O)O [Citric acid]
- Growth mm-in-diam, on agar (isolate ATCC46487): 11.3 mm-in-diam
- Growth mm-in-diam, on agar (isolate JA16-1): 0.0 mm-in-diam
- Growth mm-in-diam, on agar (isolate OWVT-1): 9.0 mm-in-diam
- Sporulation 10^3/cm^2, on agar (isolate ATCC46487): 39.5 10^3/cm^2
- Spore germination %, on agar (isolate ATCC46487): 50.0%
- Sporulation 10^3/cm^2, on agar (isolate JA16-1): 7.4 10^3/cm^2
- Spore germination %, on agar (isolate JA16-1): 38.9%
- Sporulation 10^3/cm^2, on agar (isolate OWVT-1): 87.5 10^3/cm^2
- Spore germination %, on agar (isolate OWVT-1): 52.2%

Structure (SMILES): OC[C@H]1O[C@H](O[C@H]2O[C@H](CO)[C@@H](O)[C@H](O)[C@H]2O)[C@H](O)[C@@H](O)[C@@H]1O [D(+) trehalose]
- Growth mm-in-diam, on agar (isolate ATCC46487): 36.5 mm-in-diam
- Growth mm-in-diam, on agar (isolate JA16-1): 18.3 mm-in-diam
- Growth mm-in-diam, on agar (isolate OWVT-1): 30.2 mm-in-diam
- Sporulation 10^3/cm^2, on agar (isolate ATCC46487): 172.6 10^3/cm^2
- Spore germination %, on agar (isolate ATCC46487): 60.0%
- Sporulation 10^3/cm^2, on agar (isolate JA16-1): 5.2 10^3/cm^2
- Spore germination %, on agar (isolate JA16-1): 68.9%
- Sporulation 10^3/cm^2, on agar (isolate OWVT-1): 49.2 10^3/cm^2
- Spore germination %, on agar (isolate OWVT-1): 62.2%

Structure (SMILES): O=C[C@H](O)[C@@H](O)[C@@H](O)[C@H](O)CO [D(+)galactose]
- Growth mm-in-diam, on agar (isolate ATCC46487): 25.0 mm-in-diam
- Growth mm-in-diam, on agar (isolate JA16-1): 0.0 mm-in-diam
- Growth mm-in-diam, on agar (isolate OWVT-1): 7.0 mm-in-diam
- Sporulation 10^3/cm^2, on agar (isolate ATCC46487): 2.8 10^3/cm^2
- growth in liquid culture (visual rating) (isolate ATCC46487): I
- Spore germination %, on agar (isolate ATCC46487): 62.2%
- Sporulation 10^3/cm^2, on agar (isolate JA16-1): 7.4 10^3/cm^2
- Spore germination %, on agar (isolate JA16-1): 43.3%
- Sporulation 10^3/cm^2, on agar (isolate OWVT-1): 7.7 10^3/cm^2
- Spore germination %, on agar (isolate OWVT-1): 43.3%

Structure (SMILES): O=C[C@H](O)[C@@H](O)[C@H](O)CO [D(+)xylose]
- Growth mm-in-diam, on agar (isolate ATCC46487): 0.0 mm-in-diam
- Growth mm-in-diam, on agar (isolate JA16-1): 0.0 mm-in-diam
- Growth mm-in-diam, on agar (isolate OWVT-1): 0.0 mm-in-diam
- Sporulation 10^3/cm^2, on agar (isolate ATCC46487): 0.0 10^3/cm^2
- Spore germination %, on agar (isolate ATCC46487): 21.1%
- Sporulation 10^3/cm^2, on agar (isolate JA16-1): 2.5 10^3/cm^2
- Spore germination %, on agar (isolate JA16-1): 24.4%
- Sporulation 10^3/cm^2, on agar (isolate OWVT-1): 0.0 10^3/cm^2
- Spore germination %, on agar (isolate OWVT-1): 26.7%

Structure (SMILES): O=C[C@H](O)[C@H](O)[C@H](O)CO [D(−) ribose]
- Growth mm-in-diam, on agar (isolate ATCC46487): 15.5 mm-in-diam
- Growth mm-in-diam, on agar (isolate JA16-1): 0.0 mm-in-diam
- Growth mm-in-diam, on agar (isolate OWVT-1): 8.0 mm-in-diam
- Sporulation 10^3/cm^2, on agar (isolate ATCC46487): 61.3 10^3/cm^2
- Spore germination %, on agar (isolate ATCC46487): 48.9%
- Sporulation 10^3/cm^2, on agar (isolate JA16-1): 0.0 10^3/cm^2
- Spore germination %, on agar (isolate JA16-1): 15.5%
- Sporulation 10^3/cm^2, on agar (isolate OWVT-1): 1.4 10^3/cm^2
- Spore germination %, on agar (isolate OWVT-1): 45.6%

Structure (SMILES): O=C(CO)[C@@H](O)[C@H](O)[C@H](O)CO [D(−)fructose]
- Growth mm-in-diam, on agar (isolate ATCC46487): 16.2 mm-in-diam
- Growth mm-in-diam, on agar (isolate JA16-1): 0.0 mm-in-diam
- Growth mm-in-diam, on agar (isolate OWVT-1): 8.5 mm-in-diam
- Sporulation 10^3/cm^2, on agar (isolate ATCC46487): 50.2 10^3/cm^2
- growth in liquid culture (visual rating) (isolate ATCC46487): I
- Spore germination %, on agar (isolate ATCC46487): 45.6%
- Sporulation 10^3/cm^2, on agar (isolate JA16-1): 0.0 10^3/cm^2
- Spore germination %, on agar (isolate JA16-1): 34.4%
- Sporulation 10^3/cm^2, on agar (isolate OWVT-1): 36.8 10^3/cm^2
- growth in liquid culture (visual rating) (isolate OWVT-1): I
- Spore germination %, on agar (isolate OWVT-1): 50.0%

Structure (SMILES): OC[C@H]1O[C@@H](O[C@H]2[C@H](O)[C@@H](O)[C@H](O)O[C@@H]2CO)[C@H](O)[C@@H](O)[C@@H]1O [D-(+)-cellubiose]
- Growth mm-in-diam, on agar (isolate ATCC46487): 33.0 mm-in-diam
- Growth mm-in-diam, on agar (isolate JA16-1): 10.0 mm-in-diam
- Sporulation 10^3/cm^2, on agar (isolate ATCC46487): 13.8 10^3/cm^2
- growth in liquid culture (visual rating) (isolate ATCC46487): I
- Spore germination %, on agar (isolate ATCC46487): 58.9%
- Sporulation 10^3/cm^2, on agar (isolate JA16-1): 88.8 10^3/cm^2
- growth in liquid culture (visual rating) (isolate JA16-1): I
- Spore germination %, on agar (isolate JA16-1): 52.2%
- Sporulation 10^3/cm^2, on agar (isolate OWVT-1): 23.9 10^3/cm^2
- growth in liquid culture (visual rating) (isolate OWVT-1): I
- Spore germination %, on agar (isolate OWVT-1): 52.2%

Structure (SMILES): O=C[C@H](O)[C@@H](O)[C@H](O)[C@H](O)CO [D-(+)-glucose]
- Growth mm-in-diam, on agar (isolate ATCC46487): 28.3 mm-in-diam
- Growth mm-in-diam, on agar (isolate JA16-1): 6.5 mm-in-diam
- Growth mm-in-diam, on agar (isolate OWVT-1): 8.0 mm-in-diam
- Sporulation 10^3/cm^2, on agar (isolate ATCC46487): 7.7 10^3/cm^2
- growth in liquid culture (visual rating) (isolate ATCC46487): I
- Spore germination %, on agar (isolate ATCC46487): 61.1%
- Sporulation 10^3/cm^2, on agar (isolate JA16-1): 28.1 10^3/cm^2
- Spore germination %, on agar (isolate JA16-1): 65.5%
- Sporulation 10^3/cm^2, on agar (isolate OWVT-1): 30.7 10^3/cm^2
- growth in liquid culture (visual rating) (isolate OWVT-1): I
- Spore germination %, on agar (isolate OWVT-1): 56.7%

Structure (SMILES): O=C[C@@H](O)[C@H](O)[C@H](O)CO [D-(−)-arabinose]
- Growth mm-in-diam, on agar (isolate ATCC46487): 18.0 mm-in-diam
- Growth mm-in-diam, on agar (isolate JA16-1): 0.0 mm-in-diam
- Growth mm-in-diam, on agar (isolate OWVT-1): 9.7 mm-in-diam
- Sporulation 10^3/cm^2, on agar (isolate ATCC46487): 22.3 10^3/cm^2
- Spore germination %, on agar (isolate ATCC46487): 48.9%
- Sporulation 10^3/cm^2, on agar (isolate JA16-1): 27.0 10^3/cm^2
- Spore germination %, on agar (isolate JA16-1): 32.2%
- Sporulation 10^3/cm^2, on agar (isolate OWVT-1): 35.2 10^3/cm^2
- Spore germination %, on agar (isolate OWVT-1): 40.0%

Structure (SMILES): OC[C@@H](O)[C@@H](O)[C@H](O)[C@H](O)CO [D-mannitol]
- Growth mm-in-diam, on agar (isolate ATCC46487): 29.5 mm-in-diam
- Growth mm-in-diam, on agar (isolate JA16-1): 18.0 mm-in-diam
- Growth mm-in-diam, on agar (isolate OWVT-1): 23.2 mm-in-diam
- Sporulation 10^3/cm^2, on agar (isolate ATCC46487): 15.9 10^3/cm^2
- growth in liquid culture (visual rating) (isolate ATCC46487): III (III = hyphae growth or colonies form a pellet, less than 2.5 ml)
- Spore germination %, on agar (isolate ATCC46487): 58.9%
- Sporulation 10^3/cm^2, on agar (isolate JA16-1): 17.3 10^3/cm^2
- growth in liquid culture (visual rating) (isolate JA16-1): I
- Spore germination %, on agar (isolate JA16-1): 61.1%
- Sporulation 10^3/cm^2, on agar (isolate OWVT-1): 40.6 10^3/cm^2
- Spore germination %, on agar (isolate OWVT-1): 60.0%

Structure (SMILES): OC[C@@H](O)[C@@H](O)[C@H](O)[C@@H](O)CO [D-sorbitol]
- Growth mm-in-diam, on agar (isolate ATCC46487): 30.3 mm-in-diam
- Growth mm-in-diam, on agar (isolate JA16-1): 18.3 mm-in-diam
- Growth mm-in-diam, on agar (isolate OWVT-1): 11.7 mm-in-diam
- Sporulation 10^3/cm^2, on agar (isolate ATCC46487): 64.7 10^3/cm^2
- growth in liquid culture (visual rating) (isolate ATCC46487): III (III = hyphae growth or colonies form a pellet, less than 2.5 ml)
- Spore germination %, on agar (isolate ATCC46487): 57.8%
- Sporulation 10^3/cm^2, on agar (isolate JA16-1): 4.2 10^3/cm^2
- growth in liquid culture (visual rating) (isolate JA16-1): I
- Spore germination %, on agar (isolate JA16-1): 67.8%
- Sporulation 10^3/cm^2, on agar (isolate OWVT-1): 126.0 10^3/cm^2
- Spore germination %, on agar (isolate OWVT-1): 56.7%

Structure (SMILES): O=C(CO)[C@@H](O)[C@H](O)[C@@H](O)CO [L-(−)-sorbose]
- Growth mm-in-diam, on agar (isolate ATCC46487): 7.8 mm-in-diam
- Growth mm-in-diam, on agar (isolate JA16-1): 0.0 mm-in-diam
- Growth mm-in-diam, on agar (isolate OWVT-1): 6.7 mm-in-diam
- Sporulation 10^3/cm^2, on agar (isolate ATCC46487): 62.5 10^3/cm^2
- growth in liquid culture (visual rating) (isolate ATCC46487): I
- Spore germination %, on agar (isolate ATCC46487): 35.6%
- Sporulation 10^3/cm^2, on agar (isolate JA16-1): 0.0 10^3/cm^2
- Spore germination %, on agar (isolate JA16-1): 13.3%
- Sporulation 10^3/cm^2, on agar (isolate OWVT-1): 7.4 10^3/cm^2
- growth in liquid culture (visual rating) (isolate OWVT-1): I
- Spore germination %, on agar (isolate OWVT-1): 26.7%

Structure (SMILES): OC[C@H]1O[C@H](O[C@H]2[C@H](O)[C@@H](O)[C@H](O)O[C@@H]2CO)[C@H](O)[C@@H](O)[C@@H]1O [Maltose monohydrate]
- Growth mm-in-diam, on agar (isolate ATCC46487): 34.3 mm-in-diam
- Growth mm-in-diam, on agar (isolate JA16-1): 11.0 mm-in-diam
- Growth mm-in-diam, on agar (isolate OWVT-1): 13.7 mm-in-diam
- Sporulation 10^3/cm^2, on agar (isolate ATCC46487): 21.9 10^3/cm^2
- growth in liquid culture (visual rating) (isolate ATCC46487): I
- Spore germination %, on agar (isolate ATCC46487): 36.7%
- Sporulation 10^3/cm^2, on agar (isolate JA16-1): 26.6 10^3/cm^2
- growth in liquid culture (visual rating) (isolate JA16-1): I
- Spore germination %, on agar (isolate JA16-1): 64.5%
- Sporulation 10^3/cm^2, on agar (isolate OWVT-1): 34.2 10^3/cm^2
- growth in liquid culture (visual rating) (isolate OWVT-1): I
- Spore germination %, on agar (isolate OWVT-1): 46.7%

Reference: patent US7384629B2, “Biological control of nematodes with Hirsutella minnesotensis” (Regents of the University of Minnesota, priority 2000, dated 2008)
